# Measured values: the NIST ThermoML archive (doi:10.1016/j.fluid.2015.09.010)
# Numbers after ± are expanded uncertainties.
# Assay: xn = mol fraction of the nth substance listed
# Details: Gas, single sinker densimeter
smiles,measurement,setting,value
"F/C=C/C(F)(F)F [trans-1,3,3,3-tetrafluoropropene] + CCC",mass density,"258.15 K, 100.61 kPa, x1 = 0.3426",3.2856 ± 0.014 kg/m3
same,mass density,"258.15 K, 196.38 kPa, x1 = 0.168",5.3883 ± 0.012 kg/m3
same,mass density,"258.15 K, 283.13 kPa, x1 = 0.168",7.9775 ± 0.013 kg/m3
same,mass density,"258.16 K, 100.07 kPa, x1 = 0.168",2.6751 ± 0.012 kg/m3
same,mass density,"258.16 K, 161.36 kPa, x1 = 0.3426",5.3604 ± 0.015 kg/m3
same,mass density,"258.18 K, 242.52 kPa, x1 = 0.3426",8.2589 ± 0.016 kg/m3
same,mass density,"263.19 K, 101.37 kPa, x1 = 0.3426",3.2412 ± 0.014 kg/m3
same,mass density,"263.19 K, 283.01 kPa, x1 = 0.3426",9.5248 ± 0.016 kg/m3
same,mass density,"263.2 K, 100.13 kPa, x1 = 0.168",2.6195 ± 0.011 kg/m3
same,mass density,"263.2 K, 200.66 kPa, x1 = 0.3426",6.5891 ± 0.015 kg/m3
same,mass density,"263.2 K, 209.39 kPa, x1 = 0.168",5.6353 ± 0.012 kg/m3
same,mass density,"263.2 K, 326.36 kPa, x1 = 0.168",9.0877 ± 0.014 kg/m3
same,mass density,"263.21 K, 228.28 kPa, x1 = 0.5076",8.8723 ± 0.017 kg/m3
same,mass density,"263.22 K, 100.69 kPa, x1 = 0.5076",3.7656 ± 0.016 kg/m3
same,mass density,"263.22 K, 168.02 kPa, x1 = 0.5076",6.4065 ± 0.017 kg/m3
same,mass density,"268.16 K, 332.61 kPa, x1 = 0.3431",11.1032 ± 0.016 kg/m3
same,mass density,"268.16 K, 332.62 kPa, x1 = 0.3431",11.1044 ± 0.016 kg/m3
same,mass density,"268.17 K, 101.25 kPa, x1 = 0.168",2.5987 ± 0.011 kg/m3
same,mass density,"268.17 K, 101.55 kPa, x1 = 0.679",4.2921 ± 0.018 kg/m3
same,mass density,"268.17 K, 164.37 kPa, x1 = 0.679",7.0737 ± 0.019 kg/m3
same,mass density,"268.17 K, 201.77 kPa, x1 = 0.3431",6.4883 ± 0.015 kg/m3
same,mass density,"268.17 K, 227.73 kPa, x1 = 0.679",9.9973 ± 0.019 kg/m3
same,mass density,"268.18 K, 202.12 kPa, x1 = 0.5076",7.6182 ± 0.017 kg/m3
same,mass density,"268.18 K, 248.05 kPa, x1 = 0.168",6.5968 ± 0.012 kg/m3
same,mass density,"268.18 K, 396.76 kPa, x1 = 0.168",11.0064 ± 0.014 kg/m3
same,mass density,"268.19 K, 101.5 kPa, x1 = 0.3431",3.1825 ± 0.014 kg/m3
same,mass density,"268.19 K, 104.3 kPa, x1 = 0.5076",3.83 ± 0.016 kg/m3
same,mass density,"268.2 K, 297.38 kPa, x1 = 0.5076",11.5325 ± 0.018 kg/m3
same,mass density,"273.16 K, 335.7 kPa, x1 = 0.168",8.9351 ± 0.014 kg/m3
same,mass density,"273.16 K, 451.06 kPa, x1 = 0.168",12.3973 ± 0.015 kg/m3
same,mass density,"273.17 K, 100.67 kPa, x1 = 0.3426",3.0918 ± 0.013 kg/m3
same,mass density,"273.17 K, 101.01 kPa, x1 = 0.168",2.541 ± 0.011 kg/m3
same,mass density,"273.17 K, 239.94 kPa, x1 = 0.3426",7.62 ± 0.014 kg/m3
same,mass density,"273.18 K, 102.27 kPa, x1 = 0.5076",3.6758 ± 0.015 kg/m3
same,mass density,"273.18 K, 200.45 kPa, x1 = 0.5076",7.3826 ± 0.017 kg/m3
same,mass density,"273.18 K, 209.57 kPa, x1 = 0.168",5.4023 ± 0.012 kg/m3
same,mass density,"273.18 K, 354.79 kPa, x1 = 0.5076",13.6621 ± 0.018 kg/m3
same,mass density,"273.18 K, 373.24 kPa, x1 = 0.3426",12.2939 ± 0.016 kg/m3
same,mass density,"273.18 K, 413.03 kPa, x1 = 0.3426",13.7671 ± 0.018 kg/m3
same,mass density,"273.2 K, 100.65 kPa, x1 = 0.679",4.1755 ± 0.018 kg/m3
same,mass density,"273.2 K, 206.18 kPa, x1 = 0.679",8.804 ± 0.019 kg/m3
same,mass density,"273.21 K, 292.51 kPa, x1 = 0.679",12.8266 ± 0.02 kg/m3
same,mass density,"278.16 K, 417.17 kPa, x1 = 0.3431",13.5784 ± 0.017 kg/m3
same,mass density,"278.17 K, 309.55 kPa, x1 = 0.3431",9.7917 ± 0.015 kg/m3
same,mass density,"278.18 K, 526.01 kPa, x1 = 0.168",14.3898 ± 0.016 kg/m3
same,mass density,"278.19 K, 99.65 kPa, x1 = 0.5076",3.5099 ± 0.015 kg/m3
same,mass density,"278.19 K, 100.62 kPa, x1 = 0.3431",3.0318 ± 0.013 kg/m3
same,mass density,"278.19 K, 101.41 kPa, x1 = 0.168",2.5025 ± 0.011 kg/m3
same,mass density,"278.19 K, 191.78 kPa, x1 = 0.5076",6.9037 ± 0.016 kg/m3
same,mass density,"278.19 K, 198.9 kPa, x1 = 0.3431",6.1248 ± 0.014 kg/m3
same,mass density,"278.19 K, 207 kPa, x1 = 0.168",5.2225 ± 0.011 kg/m3
same,mass density,"278.19 K, 297.09 kPa, x1 = 0.5076",10.9954 ± 0.017 kg/m3
same,mass density,"278.19 K, 309.62 kPa, x1 = 0.168",7.9983 ± 0.013 kg/m3
same,mass density,"278.19 K, 399.16 kPa, x1 = 0.5076",15.2118 ± 0.019 kg/m3
same,mass density,"278.19 K, 401.11 kPa, x1 = 0.168",10.6025 ± 0.015 kg/m3
same,mass density,"278.2 K, 223.87 kPa, x1 = 0.679",9.3941 ± 0.019 kg/m3
same,mass density,"278.21 K, 100.47 kPa, x1 = 0.679",4.0836 ± 0.018 kg/m3
same,mass density,"278.21 K, 100.48 kPa, x1 = 0.8949",4.7788 ± 0.02 kg/m3
same,mass density,"278.21 K, 170.26 kPa, x1 = 0.8949",8.2642 ± 0.022 kg/m3
same,mass density,"278.21 K, 223.89 kPa, x1 = 0.679",9.3939 ± 0.019 kg/m3
same,mass density,"278.21 K, 278.18 kPa, x1 = 0.8949",13.9927 ± 0.022 kg/m3
same,mass density,"278.22 K, 349.38 kPa, x1 = 0.679",15.2188 ± 0.021 kg/m3
same,mass density,"283.16 K, 205.37 kPa, x1 = 0.3426",6.1995 ± 0.014 kg/m3
same,mass density,"283.16 K, 338.25 kPa, x1 = 0.3426",10.53 ± 0.015 kg/m3
same,mass density,"283.17 K, 101.18 kPa, x1 = 0.3426",2.9879 ± 0.013 kg/m3
same,mass density,"283.17 K, 449.59 kPa, x1 = 0.3426",14.3925 ± 0.017 kg/m3
same,mass density,"283.18 K, 580.09 kPa, x1 = 0.3426",19.2575 ± 0.02 kg/m3
same,mass density,"283.19 K, 100.44 kPa, x1 = 0.168",2.4312 ± 0.011 kg/m3
